{
  "source": "the NIST ThermoML archive (doi:10.1021/je0504109)",
  "key": {"[1]": {"conditions": "298.15 K; 101 kPa; Liquid"}, "[2]": {"assay": "xn = mol fraction of the nth substance listed", "conditions": "298.15 K, 101 kPa, Liquid"}},
  "note": "± gives the expanded uncertainty stated by the source.",
  "data": [
    {"compound": "C1COCCO1", "note": "[1,4-dioxane]", "values": [
      {"measurement": "mass density", "setting": "[1]", "result": "1026.5 ± 0.8", "unit": "kg/m3"},
      {"measurement": "viscosity", "setting": "[1]", "result": "1.196 ± 0.02", "unit": "mPa·s"}
    ]},
    {"compound": "CCCC(=O)O", "note": "[butanoic acid]", "values": [
      {"measurement": "mass density", "setting": "[1]", "result": "952.8 ± 0.8", "unit": "kg/m3"},
      {"measurement": "viscosity", "setting": "[1]", "result": "1.396 ± 0.023", "unit": "mPa·s"}
    ]},
    {"compound": "C1COCO1", "note": "[1,3-dioxolane]", "values": [
      {"measurement": "mass density", "setting": "[1]", "result": "1057.1 ± 0.9", "unit": "kg/m3"},
      {"measurement": "viscosity", "setting": "[1]", "result": "0.531 ± 0.01", "unit": "mPa·s"}
    ]},
    {"compound": "CCCCOC(C)=O", "note": "[butyl ethanoate]", "values": [
      {"measurement": "mass density", "setting": "[1]", "result": "874.4 ± 0.7", "unit": "kg/m3"},
      {"measurement": "viscosity", "setting": "[1]", "result": "0.668 ± 0.012", "unit": "mPa·s"}
    ]},
    {"compound": "CCC(C)=O", "note": "[butanone]", "values": [
      {"measurement": "mass density", "setting": "[1]", "result": "798.1 ± 0.6", "unit": "kg/m3"},
      {"measurement": "viscosity", "setting": "[1]", "result": "0.373 ± 0.007", "unit": "mPa·s"}
    ]},
    {"compound": "CCC(C)=O", "note": "[butanone] + C1COCCO1", "values": [
      {"measurement": "mass density", "setting": "[2]; x2 = 0", "result": "798.1 ± 0.6", "unit": "kg/m3"},
      {"measurement": "viscosity", "setting": "[2]; x2 = 0", "result": "0.373 ± 0.007", "unit": "mPa·s"},
      {"measurement": "mass density", "setting": "[2]; x2 = 0.0833", "result": "817 ± 0.6", "unit": "kg/m3"},
      {"measurement": "viscosity", "setting": "[2]; x2 = 0.0833", "result": "0.391 ± 0.008", "unit": "mPa·s"},
      {"measurement": "mass density", "setting": "[2]; x2 = 0.1698", "result": "836.5 ± 0.7", "unit": "kg/m3"},
      {"measurement": "viscosity", "setting": "[2]; x2 = 0.1698", "result": "0.411 ± 0.008", "unit": "mPa·s"},
      {"measurement": "mass density", "setting": "[2]; x2 = 0.2597", "result": "856.8 ± 0.7", "unit": "kg/m3"},
      {"measurement": "viscosity", "setting": "[2]; x2 = 0.2597", "result": "0.436 ± 0.008", "unit": "mPa·s"},
      {"measurement": "mass density", "setting": "[2]; x2 = 0.353", "result": "877.9 ± 0.7", "unit": "kg/m3"},
      {"measurement": "viscosity", "setting": "[2]; x2 = 0.353", "result": "0.464 ± 0.009", "unit": "mPa·s"},
      {"measurement": "mass density", "setting": "[2]; x2 = 0.4501", "result": "900.1 ± 0.7", "unit": "kg/m3"},
      {"measurement": "viscosity", "setting": "[2]; x2 = 0.4501", "result": "0.512 ± 0.01", "unit": "mPa·s"},
      {"measurement": "mass density", "setting": "[2]; x2 = 0.5511", "result": "923.3 ± 0.7", "unit": "kg/m3"},
      {"measurement": "viscosity", "setting": "[2]; x2 = 0.5511", "result": "0.576 ± 0.011", "unit": "mPa·s"},
      {"measurement": "mass density", "setting": "[2]; x2 = 0.6563", "result": "947.2 ± 0.8", "unit": "kg/m3"},
      {"measurement": "viscosity", "setting": "[2]; x2 = 0.6563", "result": "0.65 ± 0.012", "unit": "mPa·s"},
      {"measurement": "mass density", "setting": "[2]; x2 = 0.766", "result": "972.2 ± 0.8", "unit": "kg/m3"},
      {"measurement": "viscosity", "setting": "[2]; x2 = 0.766", "result": "0.751 ± 0.013", "unit": "mPa·s"},
      {"measurement": "mass density", "setting": "[2]; x2 = 0.8805", "result": "998.5 ± 0.8", "unit": "kg/m3"},
      {"measurement": "viscosity", "setting": "[2]; x2 = 0.8805", "result": "0.901 ± 0.015", "unit": "mPa·s"}
    ]},
    {"compound": "CCCCN", "note": "[1-butanamine] + C1COCO1", "values": [
      {"measurement": "mass density", "setting": "[2]; x2 = 0", "result": "731.9 ± 0.6", "unit": "kg/m3"},
      {"measurement": "viscosity", "setting": "[2]; x2 = 0", "result": "0.493 ± 0.009", "unit": "mPa·s"},
      {"measurement": "mass density", "setting": "[2]; x2 = 0.1001", "result": "755.1 ± 0.6", "unit": "kg/m3"},
      {"measurement": "viscosity", "setting": "[2]; x2 = 0.1001", "result": "0.477 ± 0.009", "unit": "mPa·s"},
      {"measurement": "mass density", "setting": "[2]; x2 = 0.2001", "result": "779.6 ± 0.6", "unit": "kg/m3"},
      {"measurement": "viscosity", "setting": "[2]; x2 = 0.2001", "result": "0.463 ± 0.009", "unit": "mPa·s"},
      {"measurement": "mass density", "setting": "[2]; x2 = 0.3002", "result": "805.8 ± 0.6", "unit": "kg/m3"},
      {"measurement": "viscosity", "setting": "[2]; x2 = 0.3002", "result": "0.458 ± 0.009", "unit": "mPa·s"},
      {"measurement": "mass density", "setting": "[2]; x2 = 0.4002", "result": "833.8 ± 0.7", "unit": "kg/m3"},
      {"measurement": "viscosity", "setting": "[2]; x2 = 0.4002", "result": "0.455 ± 0.009", "unit": "mPa·s"},
      {"measurement": "mass density", "setting": "[2]; x2 = 0.5002", "result": "864.1 ± 0.7", "unit": "kg/m3"},
      {"measurement": "viscosity", "setting": "[2]; x2 = 0.5002", "result": "0.456 ± 0.009", "unit": "mPa·s"},
      {"measurement": "mass density", "setting": "[2]; x2 = 0.6002", "result": "896.8 ± 0.7", "unit": "kg/m3"},
      {"measurement": "viscosity", "setting": "[2]; x2 = 0.6002", "result": "0.464 ± 0.009", "unit": "mPa·s"},
      {"measurement": "mass density", "setting": "[2]; x2 = 0.7002", "result": "932.1 ± 0.8", "unit": "kg/m3"},
      {"measurement": "viscosity", "setting": "[2]; x2 = 0.7002", "result": "0.478 ± 0.009", "unit": "mPa·s"},
      {"measurement": "mass density", "setting": "[2]; x2 = 0.8001", "result": "970.3 ± 0.8", "unit": "kg/m3"},
      {"measurement": "viscosity", "setting": "[2]; x2 = 0.8001", "result": "0.496 ± 0.009", "unit": "mPa·s"},
      {"measurement": "mass density", "setting": "[2]; x2 = 0.9001", "result": "1011.8 ± 0.8", "unit": "kg/m3"},
      {"measurement": "viscosity", "setting": "[2]; x2 = 0.9001", "result": "0.513 ± 0.01", "unit": "mPa·s"}
    ]},
    {"compound": "CCCCN", "note": "[1-butanamine]", "values": [
      {"measurement": "mass density", "setting": "[1]", "result": "731.9 ± 0.6", "unit": "kg/m3"},
      {"measurement": "viscosity", "setting": "[1]", "result": "0.493 ± 0.009", "unit": "mPa·s"}
    ]},
    {"compound": "C1COCO1", "note": "[1,3-dioxolane] + CCCC(=O)O", "values": [
      {"measurement": "mass density", "setting": "[2]; x1 = 1", "result": "1057.1 ± 0.9", "unit": "kg/m3"},
      {"measurement": "viscosity", "setting": "[2]; x1 = 1", "result": "0.531 ± 0.01", "unit": "mPa·s"}
    ]}
  ]
}
